Test results from patent US20050002861A1, “Enhanced scintigraphic imaging agents for imaging of infection and inflammation” (priority 2003, published 2005).
Where no end group is shown, it is not given here.

Test system: muscle tissue infected by E. coli
Experiment: E. coli rabbit infection model: infection uptake and biodistribution of Tc-99m PGC's
Assay type: in vivo, New Zealand White (NZW) rabbits
Settings: only some lysines replaced by arginine; compared with Tc-99m P1827H
Source text: In yet another aspect of the present invention, the compositions of the invention are capable of achieving a favorable biodistribution that is characterized by a specific accumulation at the site to be imaged, e.g. in an infected muscle, and at the same time a low concentration in uninfected areas, such as normal muscle or blood. The biodistribution of the radiolabeled compositions of the invention may be expressed by means of an image contrast ratio. The image contrast ratio can be determined as the ratio Imax(infected muscle)/Imax(control muscle), hereinafter referred to as Imax:C, i.e., the maximum radioactivity accumulated in an infected muscle sample versus the maximum radioactivity accumulated in a control, i.e., uninfected, muscle sample. The radioactivity is measured as % of injected dose per gram of tissue/blood, i.e., % ID/g. For the determination of Imax values (and Iavg values; see below), the tissue or blood samples are divided into six parts of equal size/weight and the radioactivity in each of the six samples is counted. The sample with the highest radioactivity is used for the Imax value (the average of all six samples was used for Iavg). Imax (and Iavg) values are expressed as % ID/g. […]

Substance | improvement over Tc-99m P1827H
Ac-KKKKKCGCGGPLYRRIIRRLLES (cysteine pairing not given here) [P1829] | no significant improvement
Ac-RRRRRCGCGGPLYKKIIKKLLES (cysteine pairing not given here) [P1828] | no significant improvement
